Converted amounts (≈) assume the structure as drawn. Read-outs that look alike come from different tables or passages of the source.

Data set [1] in a line: Solid-state photodegradation test (black UV lamp chamber). The following applies: for stability, % 2-AZA found / stability, % DTIC found: after 15 days in photostability chamber.
Data set [2] in a line: Photostability in aqueous media (DTIC degradation / 2-AZA formation kinetics). It is filed as physicochemical. The following applies: for kg, photogeneration rate constant for 2-AZA: 5 mM solution, phosphate buffer pH 6.8, UV irradiation 5 h. How it is done:
The mobile phase consisted of a mixture of 0.1% (v/v) aqueous formic acid solution (A) and acetonitrile (B), in a gradient elution mode (0.0–2.5 min: 0% B; 2.5–4.0 min: 0–6% B; 4.0–5.0 min: 6–0% B; and 5.0–7.0 min: 0% B), delivered at a flow rate of 0.8 mL min^–1. […] The method validation followed the ICH Q2 (R2) guideline.[31] The parameters selectivity, linearity, precision, accuracy, and limits of quantitation and detection were evaluated.
A triplicate of freshly prepared solutions at a concentration of 5 mM has been placed into clear glass vials and arranged at 30 cm from a black UV lamp (300 mm, 15 W) to be photoirradiated for 5 h.

Data set [3] is described as follows: Thermal analysis (DSC and TG). It is filed as physicochemical. How it is done:
Thermogravimetric (TG) experiments were performed on a Shimadzu DTG-60 thermobalance, placing approximately 2.0 ± 0.2 mg of each sample in alumina pans and then heating at 10 °C min^–1 under a nitrogen flow (50 mL min^–1) from 25 to 600 °C. Differential scanning calorimetry (DSC) curves were obtained using a Shimadzu DSC-60 instrument. The samples (1.0 ± 0.2 mg) were placed in aluminum pans and heated at a constant rate of 10 °C min^–1 under a nitrogen flow (50 mL min^–1). According to TG data, the DSC measurements have been conducted until the degradation temperature of each compound. Shimadzu TA-60 software was employed in the data analysis.

Data set [4] is described as follows: Solid-state stability under accelerated degradation conditions (40 °C, 75% RH).
A short description of data set [5]: Intrinsic dissolution, rotating disk apparatus. The format is physicochemical. The following applies: for IDR (intrinsic dissolution rate) pH 6.8: phosphate buffer pH 6.8, 37.0 ± 0.5 °C, 100 rpm. Here is the method:
Intrinsic dissolution tests were carried out in triplicate using a rotating disk dissolution apparatus. […] The attachments containing the disks were immersed into 500 mL of phosphate buffer, pH 6.8, medium preheated at 37.0 ± 0.5 °C with the metallic rod rotating at 100 rpm.

For data set [6] the following is noted: weak base; cited from earlier work.
Data set [7] in a line: physchem. The following applies: 37 °C, thermodynamic from solid.
Data set [8] in a line: pKa and ΔpKa between DTIC and coformers. The following applies: between DTIC and the coformer, Table S4.
The mark [9] stands for this setting: freshly prepared (initial) solid sample.
[10] abbreviates: solid, after 90 days at 40 °C and 75% RH.

With `CN(C)N=Nc1[nH]cnc1C(N)=O.O=C(O)C(=O)O` [DTIC-HOXA, Dacarbazine Hydrogen-Oxalate Salt], in data set [1], the “stability, % 2-AZA found” value is listed as 2.2 ± 0.4% and the “stability, % DTIC found” value stood at 97.1 ± 0.3%. Besides, in data set [2], the “kg, photogeneration rate constant for 2-AZA” value (from here on “kg … for 2-AZA”) turned out to be 0.386 ± 0.03 mM h^–1. In data set [3], the “Tonset of DSC exothermic degradation peak” value is 170.2 °C and the “decomposition temperature (DSC exothermic degradation peak)” value (“decomposition temperature” for short) was 175.0 °C. In data set [3] (10 °C min^–1, nitrogen flow), the “TG: thermally stable up to / mass loss begins at” value (from here on “TG … to / mass loss begins at”) was “around 166 °C” and the “Tonset of TG mass loss” value was determined as 161.7 °C. Further, the “stability, % DTIC found” value in data set [4] (setting [9]) is on record as 100.1 ± 0.1%. For the same molecule, in data set [4] (setting [10]), the “stability, % DTIC found” value came to 99.9 ± 0.2%. In addition, the “increase of IDR compared to DTIC” value in data set [5] (phosphate buffer pH 6.8) came to 22 fold. The “IDR (intrinsic dissolution rate) pH 6.8” value in data set [5] is 5.58 ± 0.08 mg cm^–2 min^–1.

`CN(C)N=Nc1nc[nH]c1C(N)=O.O=C(O)/C=C/C(=O)O` [DTIC-H2FUM, Dacarbazine-Fumaric Acid Cocrystal]: in data set [1], the “stability, % 2-AZA found” value is 1.1 ± 0.1% and the “stability, % DTIC found” value is 97.3 ± 0.2%. Besides, in data set [2], the “kg … for 2-AZA” value was 0.363 ± 0.02 mM h^–1. Besides, in data set [3], the “Tonset of DSC exothermic degradation peak” value is 172.1 °C and the “decomposition temperature” value was determined as 178.1 °C. Also, in data set [3] (10 °C min^–1, nitrogen flow), the “TG … to / mass loss begins at” value is “around 163 °C” and the “Tonset of TG mass loss” value stood at 159.4 °C. In data set [4] (setting [9]), the “stability, % DTIC found” value amounted to 99.5 ± 0.3%. In addition, the “stability, % DTIC found” value in data set [4] (setting [10]) is recorded as 99.2 ± 0.2%. In addition, the “increase of IDR compared to DTIC” value in data set [5] (phosphate buffer pH 6.8) is recorded as roughly 5.1 fold. Moreover, the “IDR (intrinsic dissolution rate) pH 6.8” value in data set [5] is on record as 1.31 ± 0.05 mg cm^–2 min^–1.

As to `CN(C)N=Nc1[nH]cnc1C(N)=O.O=C(O)C=CC(=O)O` [DTIC-HMAL, Dacarbazine Hydrogen-Maleate Salt], the “stability, % 2-AZA found” value in data set [1] is 1.7 ± 0.2%. Further, the “stability, % DTIC found” value in data set [1] is recorded as 98.4 ± 0.2%; in data set [4] (setting [9]), 99.6 ± 0.4%; in data set [4] (setting [10]), 98.2 ± 0.4%. Also, in data set [2], the “kg … for 2-AZA” value is listed as 0.371 ± 0.02 mM h^–1. Further, the “increase of IDR compared to DTIC” value in data set [5] (phosphate buffer pH 6.8) is “approximately 7.3 fold”. In addition, the “IDR (intrinsic dissolution rate) pH 6.8” value in data set [5] came to 1.90 ± 0.06 mg cm^–2 min^–1.

Regarding `CN(C)N=Nc1nc[nH]c1C(N)=O.CN(C)N=Nc1nc[nH]c1C(N)=O.O.O.O.O.O=C(O)CC(O)(CC(=O)O)C(=O)O` [DTIC-HCIT, Dacarbazine Hydrogen-Citrate Salt-Cocrystal], the “stability, % 2-AZA found” value in data set [1] is reported as 1.8 ± 0.2%. The “stability, % DTIC found” value in data set [1] was 97.0 ± 0.4%; in data set [4] (setting [9]), 99.8 ± 0.4%; in data set [4] (setting [10]), 96.0 ± 0.5%. Also, the “kg … for 2-AZA” value in data set [2] was 0.338 ± 0.03 mM h^–1. Also, the “IDR compared with DTIC (in words)” value in data set [5] (phosphate buffer pH 6.8) is given as “equivalent to those of DTIC”. Further, in data set [5], the “IDR (intrinsic dissolution rate) pH 6.8” value is on record as 0.35 ± 0.01 mg cm^–2 min^–1.

In general, pKa refers to the pH at which an ionisable group is half protonated. Usually solubility stands for the concentration that dissolves in the medium under given conditions. With `CN(C)/N=N/c1[nH]cnc1C(N)=O` [DTIC, Dacarbazine, reference compound], the “reduction in the drug content during the photostability test” value in data set [1] (15 days UV exposure) was determined as 5.6%. The “stability, % DTIC found” value in data set [1] came out at 94.4 ± 0.5%. In data set [2], the “kg … for 2-AZA” value was determined as 0.361 ± 0.04 mM h^–1. For the same molecule, the “photodegradation in solution under UV radiation (in words)” value in data set [2] (low-pH and diluted solutions) was “Complete and rapid photodegradation”. Besides, in data set [3] (10 °C min^–1, nitrogen flow), the “TG … to / mass loss begins at” value was 208 °C, the “Tonset of DSC exothermic degradation peak” value is 210.8 °C, the “Tonset of TG mass loss” value was 206.5 °C and the “decomposition temperature” value was determined as 215.5 °C. The pKa in data set [6] is reported as 4.4. The “stability, % DTIC found” value in data set [4] (setting [9]) stood at 100.0 ± 0.2%. In addition, the “stability, % DTIC found” value in data set [4] (setting [10]) is 99.8 ± 0.3%. In data set [5], the “IDR (intrinsic dissolution rate) pH 6.8” value is given as 0.26 ± 0.02 mg cm^–2 min^–1. For the same molecule, the solubility at 24 h in data set [7] (HCl solution, pH 1.2, simulated gastric fluid) was 20.4 ± 0.2 mg/mL (≈ 112 mM). In data set [7] (acetate buffer, pH 4.5, aqueous buffer), the concentration in solution (solubility at 24 h) came to 3.4 ± 0.2 mg/mL (≈ 18.7 mM).

In the case of `O=C(O)/C=C\C(=O)O` [Maleic acid], the “ΔpKa (pKa(base) − pKa(acid))” value in data set [8] was found to be 2.5.

Consider `O=C(O)/C=C/C(=O)O` [Fumaric acid], for which the “ΔpKa (pKa(base) − pKa(acid))” value in data set [8] is 1.4.
